Experiments:
Acetylcholinesterase = Acetylcholinesterase (Homo sapiens, UniProt P22303); assay: Inhibition of human recombinant AChE by Ellman's method
Cholinesterase = Cholinesterase (Homo sapiens, UniProt P06276); assay: Inhibition of human plasma BChE by Ellman's method
Chain of Cholinesterase (P06276 whole entry): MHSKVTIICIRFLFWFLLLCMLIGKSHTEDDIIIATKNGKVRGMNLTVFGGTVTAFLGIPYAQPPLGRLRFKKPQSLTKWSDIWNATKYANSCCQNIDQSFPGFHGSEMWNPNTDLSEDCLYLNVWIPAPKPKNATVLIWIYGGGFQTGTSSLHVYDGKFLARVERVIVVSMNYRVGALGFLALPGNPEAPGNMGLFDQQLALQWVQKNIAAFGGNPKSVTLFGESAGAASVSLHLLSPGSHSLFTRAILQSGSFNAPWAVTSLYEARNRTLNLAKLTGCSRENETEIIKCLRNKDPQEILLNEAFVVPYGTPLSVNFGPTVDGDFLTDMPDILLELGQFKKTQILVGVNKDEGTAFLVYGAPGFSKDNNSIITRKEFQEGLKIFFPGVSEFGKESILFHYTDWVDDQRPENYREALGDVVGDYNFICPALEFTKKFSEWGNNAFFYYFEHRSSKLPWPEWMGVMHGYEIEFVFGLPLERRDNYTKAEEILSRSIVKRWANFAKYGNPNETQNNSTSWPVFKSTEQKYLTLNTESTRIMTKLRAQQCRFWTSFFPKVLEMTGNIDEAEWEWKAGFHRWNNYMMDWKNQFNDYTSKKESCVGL

Chain of Acetylcholinesterase (P22303 whole entry): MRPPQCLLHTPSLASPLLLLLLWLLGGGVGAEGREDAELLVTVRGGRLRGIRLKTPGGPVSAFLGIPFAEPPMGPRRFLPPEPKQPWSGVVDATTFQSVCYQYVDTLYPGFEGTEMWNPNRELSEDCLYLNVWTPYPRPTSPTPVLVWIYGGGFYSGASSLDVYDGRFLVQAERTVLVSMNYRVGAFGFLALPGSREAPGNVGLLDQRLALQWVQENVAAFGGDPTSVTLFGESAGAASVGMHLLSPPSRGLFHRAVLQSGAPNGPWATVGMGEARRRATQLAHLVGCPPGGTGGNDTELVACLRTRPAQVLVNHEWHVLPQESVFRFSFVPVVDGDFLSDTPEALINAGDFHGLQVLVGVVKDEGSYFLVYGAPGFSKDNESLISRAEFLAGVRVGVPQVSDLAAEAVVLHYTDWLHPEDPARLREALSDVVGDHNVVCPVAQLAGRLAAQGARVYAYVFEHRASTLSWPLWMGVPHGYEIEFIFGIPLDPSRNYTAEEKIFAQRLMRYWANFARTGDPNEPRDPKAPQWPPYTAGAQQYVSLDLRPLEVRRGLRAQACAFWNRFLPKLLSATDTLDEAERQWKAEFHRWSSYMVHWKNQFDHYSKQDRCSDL

SMILES	Ki (Acetylcholinesterase)	Ki (Cholinesterase)
O=c1c(O)c(-c2cc(O)c(O)c(O)c2)oc2cc(O)cc(O)c12	37.8 µM	71 µM
O=c1c(O)c(-c2ccc(O)c(O)c2)oc2cc(O)ccc12 [2-(3,4-dihydroxyphenyl)-3,7-dihydroxy-chromen-4-one]	100 µM	90 µM
O=c1c(O)c(-c2ccccc2)oc2cc(O)cc(O)c12 [norizalpinin]	85.6 µM	6.9 µM
C[C@@H]1O[C@@H](OC[C@H]2O[C@@H](Oc3c(-c4ccc(O)c(O)c4)oc4cc(O)cc(O)c4c3=O)[C@H](O)[C@@H](O)[C@@H]2O)[C@H](O)[C@H](O)[C@H]1O [3-Rhamnoglucosylquercetin]	> 300 µM	501 µM
O=c1cc(-c2ccc(O)cc2)oc2cc(O)cc(O)c12 [Naringenin, 18]	122 µM	37.4 µM
O=c1c(O)c(-c2ccc(O)cc2)oc2cc(O)cc(O)c12	92.8 µM	43.1 µM
O=c1c(O)c(-c2ccc(O)c(O)c2)oc2cc(O)cc(O)c12 [2-(3,4-dihydroxyphenyl)-3,5,7-trihydroxy-chromone;hydrate]	38.3 µM	68 µM
O=c1cc(-c2ccc(O)c(O)c2)oc2cc(O)cc(O)c12 [2-(3,4-dihydroxyphenyl)-5,7-dihydroxy-4H-chromen-4-one]	65.8 µM	166 µM

From BindingDB's records for doi:10.1016/j.ejmech.2009.09.041 (Institute For Medical Research and Occupational Health, 2010)
